Assay [1] has as its target T1, rP2 × 4R C132S/C159S mutant (Rattus norvegicus, UniProt P51577, C132S/C159S).
T1 construct: host or cells: Xenopus laevis oocytes
T1 sequence (P51577 1-388 C132S/C159S): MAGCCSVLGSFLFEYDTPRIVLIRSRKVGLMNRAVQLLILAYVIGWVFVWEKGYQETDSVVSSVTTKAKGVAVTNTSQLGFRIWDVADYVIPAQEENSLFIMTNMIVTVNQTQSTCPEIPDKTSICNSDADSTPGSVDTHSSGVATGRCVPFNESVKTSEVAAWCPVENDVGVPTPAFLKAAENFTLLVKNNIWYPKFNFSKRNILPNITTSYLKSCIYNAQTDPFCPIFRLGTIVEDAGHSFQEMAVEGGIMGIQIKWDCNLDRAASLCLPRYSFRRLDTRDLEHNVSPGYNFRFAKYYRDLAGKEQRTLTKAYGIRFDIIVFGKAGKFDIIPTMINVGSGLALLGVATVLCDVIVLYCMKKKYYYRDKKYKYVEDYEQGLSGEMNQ
Put plainly: ATP concentration–response curves, voltage clamp, C132S/C159S double mutant. Type of assay: cell-based.

In another assay the target is T2, rP2 × 4R C149A mutant (Rattus norvegicus, UniProt P51577, C149A).
T2 construct: host or cells: Xenopus laevis oocytes
T2 sequence (P51577 1-388 C149A): T1 sequence (P51577 1-388 C132S/C159S) with S132C, C149A, S159C
Nature of the assay: ATP concentration–response curves, voltage clamp, C149A mutant. Type of assay: cell-based. Particulars: for EC50: ATP EC50, C149A.

Assay [2] has as its target T3, rP2 × 4R C132T/C159T mutant (Rattus norvegicus, UniProt P51577, C132T/C159T).
T3 construct: expressed in transfected cells; host or cells: Xenopus laevis oocytes
T3 sequence (P51577 1-388 C132T/C159T): T1 sequence (P51577 1-388 C132S/C159S) with S132T, S159T
Nature of the assay: ATP concentration–response curves, voltage clamp, C132T/C159T double mutant. Type of assay: cell-based.

For a further assay, the target named is T4, rP2 × 4R C126A mutant (Rattus norvegicus, UniProt P51577, C126A).
T4 sequence (P51577 1-388 C126A): T1 sequence (P51577 1-388 C132S/C159S) with C126A, S132C, S159C
Nature of the assay: ATP concentration–response curves, voltage clamp, C126A mutant.

The next assay concerns the target T5, rP2 × 4R D170N mutant (Rattus norvegicus, UniProt P51577, D170N).
T5 construct: host or cells: Xenopus laevis oocytes
T5 sequence (P51577 1-388 D170N): T1 sequence (P51577 1-388 C132S/C159S) with S132C, S159C, D170N
Put plainly: ATP concentration–response curves, voltage clamp, D170N mutant. Type of assay: cell-based. Particulars: for EC50: ATP EC50, D170N.

The target of assay [3] is T6, rP2 × 4R C132A/C159A mutant (Rattus norvegicus, UniProt P51577, C132A/C159A).
T6 construct: host or cells: Xenopus laevis oocytes
T6 sequence (P51577 1-388 C132A/C159A): T1 sequence (P51577 1-388 C132S/C159S) with S132A, S159A
Put plainly: ATP concentration–response curves, voltage clamp, C132A/C159A double mutant. Type of assay: cell-based. Particulars: for EC50: ATP EC50, C132A/C159A.

Structures are written as SMILES. Substitutions are numbered along the chain they refer to.

For the compound `Nc1ncnc2c1ncn2[C@@H]1O[C@H](COP(=O)(O)OP(=O)(O)OP(=O)(O)O)[C@@H](O)[C@H]1O` [ATP, adenosine triphosphate], the EC50 (commonly the concentration giving half of the maximal effect) in assay [1] (control) amounted to 20.5 ± 5 µM; on rP2 × 4R C149A mutant (+10 µM Zn(II)), 22.5 ± 7.5 µM; at rP2 × 4R C149A mutant (control) it was 39 ± 16.7 µM; in assay [2] (control), 27.4 ± 13.6 µM; at rP2 × 4R C126A mutant (ATP EC50, C126A, +10 µM Zn(II)), 9.3 ± 3 µM; at rP2 × 4R D170N mutant (+10 µM Zn(II)), 12.8 ± 8.1 µM. Besides, the values for the EC50 (on rP2 × 4R D170N mutant (control); in assay [3] (+10 µM Zn(II)); in assay [3] (control)) were 19.3 ± 10.5 µM, 4.5 ± 1.6 µM and 77.1 ± 24.1 µM, respectively. For the same compound, the Imax at rP2 × 4R C149A mutant (C149A, +10 µM Zn(II)) was found to be 10.7 ± 3.5 µA; in assay [2] (control), 3.2 ± 0.7 µA; at rP2 × 4R C126A mutant (C126A, +10 µM Zn(II)) it was 11.7 ± 4.8 µA.
Take `[Cl-].[Cl-].[Zn+2]` [Zn(II), zinc chloride (ZnCl2)]: the “fold reduction in ATP EC50 by Zn(II)” value in assay [1] (10 µM Zn(II)) is 3.41 fold; at rP2 × 4R C126A mutant (C126A, 10 µM Zn(II)), 4.1 fold; in assay [3] (C132A/C159A, 10 µM Zn(II)), 17.1 fold. Moreover, the “fold ATP EC50 decrease by Zn(II)” value on rP2 × 4R C149A mutant (C149A, 10 µM Zn(II)) is given as 1.73 fold. Also, in assay [2] (10 µM Zn(II)), the “fold ATP EC50 reduction by Zn(II)” value is 5.5 fold. Moreover, on rP2 × 4R D170N mutant (D170N, 10 µM Zn(II)), the “EC50 ratio in the metal presence” value amounted to 1.5.

For the origin of these results see paper PMC7555825, “New Insights of the Zn(II)-Induced P2 × 4R Positive Allosteric Modulation: Role of Head Receptor Domain SS2/SS3, E160 and D170” (International Journal of Molecular Sciences, 2020).
